Values joined by “and” are separate entries in the source; they are usually repeats but may differ in a detail not shown here. Equal values may be shown once. Read-outs that look alike come from different tables or passages of the source. Starred links: 1 amine or outer side, 2 acyl side, 3 side chain; linkers in the order of their positions; H or OH if unused. Positions of bridges follow the written chain, without caps; N, C: chain ends. Non-standard residues stand in square brackets, D forms with d. Residues, ends and D or L forms follow the SMILES beside them. Trp(2-yl) = O=C([C@H](Cc1c([*:3])[nH]c2ccccc12)N[*:1])[*:2]; Leu(4R-OH,5-OH) = C[C@](O)(CO)C[C@H](N)C(=O)O; cisHyp = O=C(O)[C@@H]1C[C@H](O)CN1
Experiments:
OATP1B1 [1] = biological target: T1, OATP1B1 (Homo sapiens, UniProt Q9Y6L6); experiment: Screening for inhibition of OATP1B1-mediated estradiol-17β-glucuronide uptake; conditions: for Classification as OATP1B1 inhibitor (more than 50% inhibition of E17βG uptake): 20 μM test compound
T1 sequence (Q9Y6L6 1-691): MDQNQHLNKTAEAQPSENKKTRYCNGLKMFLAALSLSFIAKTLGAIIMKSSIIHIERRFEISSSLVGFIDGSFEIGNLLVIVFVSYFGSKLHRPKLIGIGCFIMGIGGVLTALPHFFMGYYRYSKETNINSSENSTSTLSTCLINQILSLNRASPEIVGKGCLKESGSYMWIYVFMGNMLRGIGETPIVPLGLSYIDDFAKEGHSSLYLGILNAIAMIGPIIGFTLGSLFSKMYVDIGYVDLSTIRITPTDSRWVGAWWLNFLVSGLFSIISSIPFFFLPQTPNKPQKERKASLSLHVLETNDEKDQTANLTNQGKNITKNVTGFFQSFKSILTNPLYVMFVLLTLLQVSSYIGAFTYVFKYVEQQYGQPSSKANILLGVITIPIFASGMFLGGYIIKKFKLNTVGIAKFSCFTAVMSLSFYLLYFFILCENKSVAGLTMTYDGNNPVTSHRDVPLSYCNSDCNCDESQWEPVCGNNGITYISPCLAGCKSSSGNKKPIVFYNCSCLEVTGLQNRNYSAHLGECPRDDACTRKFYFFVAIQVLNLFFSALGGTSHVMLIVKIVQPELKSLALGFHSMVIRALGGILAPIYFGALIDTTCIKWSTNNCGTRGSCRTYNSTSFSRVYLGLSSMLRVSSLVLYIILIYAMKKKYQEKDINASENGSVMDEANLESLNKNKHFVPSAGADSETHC

OATP1B1 [2] = biological target: T1, OATP1B1; conditions: IC50 from another study and cell system; ref [3]; cited from earlier work
OATP1B1 [3] = biological target: T1, OATP1B1; experiment: Concentration-dependent inhibition of OATP1B1-mediated atorvastatin uptake; assay type: cell-based
OATP1B1 [4] = biological target: T1, OATP1B1; experiment: Calculation of R-values; conditions: for R-value E: ka = 0.03, Fa published value (lopinavir Fa = 1); for Range of the eight R-values A–H: all eight calculation variants; for Average (mean) R-value: mean of the eight R-values A–H
[5] = cited from earlier work; for Fa, fraction of the inhibitor dose absorbed (maximum oral bioavailability): ref [23]–[25]; for Imax, maximum systemic plasma concentration of the inhibitor: amprenavir recalculated from fosamprenavir data, ref [23]–[28]
OATP1B1 [6] = biological target: T1, OATP1B1; experiment: Michaelis-Menten uptake kinetics in HEK293 cells stably expressing OATP1B1; assay type: cell-based
[7] = human, pH 7.4, Inhibition of E17βG uptake, 100 μM test compound (data not shown)

Molecule: CC(=O)Oc1ccc2c(c1)Oc1cc(OC(C)=O)ccc1C21OC(=O)c2cc(C(=O)O)ccc21 [5-CFDA]
- Classification as OATP1B1 inhibitor (more than 50% inhibition of E17βG uptake) (OATP1B1 [1]): inhibitors

Molecule: CCC[C@@]1(CCc2ccccc2)CC(O)=C([C@H](CC)c2cccc(NS(=O)(=O)c3ccc(C(F)(F)F)cn3)c2)C(=O)O1 [Tipranavir]
- Classification as OATP1B1 inhibitor (more than 50% inhibition of E17βG uptake) (OATP1B1 [1]): inhibitors

Molecule: C[C@H](CCC(=O)NCCS(=O)(=O)O)[C@H]1CC[C@H]2[C@@H]3[C@H](O)C[C@@H]4C[C@H](O)CC[C@]4(C)[C@H]3CC[C@]12C [Taurochenodeoxycholate]
- Classification as OATP1B1 inhibitor (more than 50% inhibition of E17βG uptake) (OATP1B1 [1]): inhibitors

Molecule: Cc1cccc(C)c1OCC(=O)N[C@@H](Cc1ccccc1)[C@@H](O)C[C@H](Cc1ccccc1)NC(=O)[C@H](C(C)C)N1CCCNC1=O [Lopinavir]
- R-value B calculated in the literature (OATP1B1 [2]): 9.2
- IC50 (OATP1B1 [3]): 740 nM
- Ki (OATP1B1 [3]): 320 nM
- R-value B (OATP1B1 [4]): 1.76
- R-value C (OATP1B1 [4]): 2.56
- R-value D (OATP1B1 [4]): 2.56
- R-value F (OATP1B1 [4]): 2.74
- R-value G (OATP1B1 [4]): 4.58
- R-value H (OATP1B1 [4]): 4.58
- R-value E (OATP1B1 [4]; Eq. 3 (Ki)): 2.74
- Range of the eight R-values A–H (OATP1B1 [4]): 1.76–4.58
- Average (mean) R-value (OATP1B1 [4]): 2.91

Molecule: COC(=O)C1=C(C)NC(C)=C(C(=O)OCCN(C)Cc2ccccc2)C1c1cccc([N+](=O)[O-])c1 (stereo not drawn) [Nicardipine]
- Classification as OATP1B1 inhibitor (more than 50% inhibition of E17βG uptake) (OATP1B1 [1]): inhibitors

Molecule: CCOc1nc2cccc(C(=O)O)c2n1Cc1ccc(-c2ccccc2-c2nnn[nH]2)cc1 [Candesartan]
- Classification as OATP1B1 inhibitor (more than 50% inhibition of E17βG uptake) (OATP1B1 [1]): inhibitors

Molecule: C[C@H](CCC(=O)NCC(=O)O)[C@H]1CC[C@H]2[C@@H]3[C@H](O)C[C@@H]4C[C@H](O)CC[C@]4(C)[C@H]3CC[C@]12C [Glycochenodeoxycholate]
- Classification as OATP1B1 inhibitor (more than 50% inhibition of E17βG uptake) (OATP1B1 [1]): inhibitors

Molecule: C[C@@H]1[C@H](O)[C@@H](C)/C=C/C=C/CC/C=C/C=C/C=C/C=C/C(O[C@H]2O[C@H](C)[C@@H](O)[C@H](N)[C@@H]2O)CC2O[C@](O)(CC(O)C(O)CCC(O)CC(O)CC(O)CC(=O)O[C@H]1C)CC(O)C2C(=O)O (stereo partly drawn) [Nystatin]
- Classification as OATP1B1 inhibitor (more than 50% inhibition of E17βG uptake) (OATP1B1 [1]): inhibitors

Molecule: COc1ccc2c(c1)c(CC(=O)O)c(C)n2C(=O)c1ccc(Cl)cc1 [Indomethacin]
- Classification as OATP1B1 inhibitor (more than 50% inhibition of E17βG uptake) (OATP1B1 [1]): inhibitors

Molecule: CC(C)OC(=O)C(C)(C)Oc1ccc(C(=O)c2ccc(Cl)cc2)cc1 [Fenofibrate]
- Fa, fraction of the inhibitor dose absorbed (maximum oral bioavailability) [5]: 0.81
- Inhibition of atorvastatin uptake (in words) (OATP1B1 [3]; investigated concentration interval 0.1–100 μM, 1 μM atorvastatin): did not inhibit atorvastatin uptake

Molecule: CC/C(=C(/CC)c1ccc(O)cc1)c1ccc(O)cc1 [Diethylstilbestrol]
- Classification as OATP1B1 inhibitor (more than 50% inhibition of E17βG uptake) (OATP1B1 [1]): inhibitors

Molecule: CNC(=O)c1cccnc1 [N-methylnicotinamide]
- Classification as OATP1B1 inhibitor (more than 50% inhibition of E17βG uptake) (OATP1B1 [1]): inhibitors

Molecule: N[C@@H](Cc1cc(I)c(Oc2cc(I)c(O)c(I)c2)c(I)c1)C(=O)O [Levothyroxin]
- Classification as OATP1B1 inhibitor (more than 50% inhibition of E17βG uptake) (OATP1B1 [1]): not identified as inhibitors
- inhibition at 5 min, 75 µM (OATP1B1 [1]; human, pH 7.4, Inhibition of E17βG uptake, 75 μM test compound (data not shown)): > 50%
- inhibition at 5 min, 100 µM (OATP1B1 [1]; [7]): > 50%

Molecule: CC(=O)S[C@@H]1CC2=CC(=O)CC[C@]2(C)[C@H]2CC[C@@]3(C)[C@@H](CC[C@@]34CCC(=O)O4)[C@H]12 [Spironolactone]
- Classification as OATP1B1 inhibitor (more than 50% inhibition of E17βG uptake) (OATP1B1 [1]): inhibitors

Molecule: COC(=O)N[C@H](C(=O)N[C@@H](Cc1ccccc1)[C@@H](O)CN(Cc1ccc(-c2ccccn2)cc1)NC(=O)[C@@H](NC(=O)OC)C(C)(C)C)C(C)(C)C [Atazanavir]
- Imax, maximum systemic plasma concentration of the inhibitor [5]: 4.47 µM
- Fa, fraction of the inhibitor dose absorbed (maximum oral bioavailability) [5]: 0.68
- IC50 (OATP1B1 [3]): 1610 nM
- Ki (OATP1B1 [3]): 910 nM
- R-value B (OATP1B1 [4]): 2.38
- R-value C (OATP1B1 [4]): 3.63
- R-value D (OATP1B1 [4]): 4.68
- R-value F (OATP1B1 [4]): 3.43
- R-value G (OATP1B1 [4]): 5.64
- R-value H (OATP1B1 [4]): 7.49
- R-value E (OATP1B1 [4]; Eq. 3 (Ki)): 2.87
- Average (mean) R-value (OATP1B1 [4]): 4.02

Molecule: Ivermectin
- Classification as OATP1B1 inhibitor (more than 50% inhibition of E17βG uptake) (OATP1B1 [1]): inhibitors

Molecule: CC1(C)S[C@@H]2[C@H](NC(=O)Cc3ccccc3)C(=O)N2[C@H]1C(=O)O [Penicillin G]
- inhibition at 5 min, 100 µM (OATP1B1 [1]; [7]): 32%

Molecule: COC(=O)[C@H]1[C@H]2C[C@@H]3c4[nH]c5cc(OC)ccc5c4CCN3C[C@H]2C[C@@H](OC(=O)c2cc(OC)c(OC)c(OC)c2)[C@@H]1OC [Reserpine]
- Classification as OATP1B1 inhibitor (more than 50% inhibition of E17βG uptake) (OATP1B1 [1]): inhibitors

Molecule: C[C@]12CC[C@@H]3c4ccc(O)cc4CC[C@H]3[C@@H]1CC[C@@H]2O[C@@H]1O[C@H](C(=O)O)[C@@H](O)[C@H](O)[C@H]1O [Estradiol-17-β-glucuronide]
- Vmax of OATP1B1-mediated uptake (OATP1B1 [6]; E17βG 1–200 μM, 96-well plates, HEK293-OATP1B1): 1.37 (± 0.12) pmol/min/mg protein
- Uptake in OATP1B1 cells relative to mock-transfected cells (OATP1B1 [6]; at 5 min (E17βG) and 2 min (atorvastatin)): at least 8 times

Molecule: C[C@H](CCC(=O)NCCS(=O)(=O)O)[C@H]1CC[C@H]2[C@@H]3CC[C@@H]4C[C@H](O)CC[C@]4(C)[C@H]3C[C@H](O)[C@]12C [Taurodeoxycholate]
- Classification as OATP1B1 inhibitor (more than 50% inhibition of E17βG uptake) (OATP1B1 [1]): inhibitors

Molecule: O=C(O)c1cc(/N=N/c2ccc(S(=O)(=O)Nc3ccccn3)cc2)ccc1O [Sulfasalazine]
- Classification as OATP1B1 inhibitor (more than 50% inhibition of E17βG uptake) (OATP1B1 [1]): inhibitors

Molecule: C[C@@H]1NC(=O)[C@H](C[C@@](C)(O)CO)NC(=O)[C@@H]2Cc3c([nH]c4ccccc34)SC[C@H](NC(=O)[C@@H]([C@H](C)O)NC1=O)C(=O)N1C[C@@H](O)C[C@H]1C(=O)N[C@@H](C)C(=O)N2 [Phalloidin] (cyclo(A[dT]C[cisHyp]A[Trp(2-yl)][Leu(4R-OH,5-OH)]); thioether 3-6)
- Classification as OATP1B1 inhibitor (more than 50% inhibition of E17βG uptake) (OATP1B1 [1]): not identified as inhibitors
- inhibition at 5 min, 100 µM (OATP1B1 [1]; human, pH 7.4): 49%

Molecule: CC[C@]1(O)C[C@@H]2CN(CCc3c([nH]c4ccccc34)[C@@](C(=O)OC)(c3cc4c(cc3OC)N(C)[C@H]3[C@@](O)(C(=O)OC)[C@H](OC(C)=O)[C@]5(CC)C=CCN6CC[C@]43[C@@H]65)C2)C1 [Vinblastine]
- Classification as OATP1B1 inhibitor (more than 50% inhibition of E17βG uptake) (OATP1B1 [1]): inhibitors

Molecule: C[C@H](CCC(=O)NCC(=O)O)[C@H]1CC[C@H]2[C@@H]3CC[C@@H]4C[C@H](O)CC[C@]4(C)[C@H]3C[C@H](O)[C@]12C [Glycodeoxycholate]
- Classification as OATP1B1 inhibitor (more than 50% inhibition of E17βG uptake) (OATP1B1 [1]): inhibitors

Molecule: CN(CCOc1ccc(CC2SC(=O)NC2=O)cc1)c1ccccn1 (stereo not drawn) [Rosiglitazone]
- Classification as OATP1B1 inhibitor (more than 50% inhibition of E17βG uptake) (OATP1B1 [1]): classified as OATP1B1 inhibitors

Molecule: CC(C)CN(C[C@@H](O)[C@H](Cc1ccccc1)NC(=O)O[C@H]1CCOC1)S(=O)(=O)c1ccc(N)cc1 [Amprenavir]
- Imax, maximum systemic plasma concentration of the inhibitor [5]: 11.2 µM
- Fa, fraction of the inhibitor dose absorbed (maximum oral bioavailability) [5]: 0.9
- Ki (OATP1B1 [3]): 9520 nM
- R-value B (OATP1B1 [4]; Eq. 2 (IC50), ka = 0.03, Fa = 1, International Transporter Consortium method): 1.21
- R-value D (OATP1B1 [4]; Eq. 2 (IC50), ka = 0.1, Fa = 1): 1.54
- R-value C (OATP1B1 [4]; Eq. 2 (IC50), ka = 0.1, Fa published value (lopinavir Fa = 1)): 1.49
- R-value F (OATP1B1 [4]; Eq. 3 (Ki), ka = 0.03, Fa = 1): 1.37
- R-value E (OATP1B1 [4]; Eq. 3 (Ki)): 1.34
- R-value H (OATP1B1 [4]; Eq. 3 (Ki), ka = 0.1, Fa = 1, Hirano et al. method): 1.95
- R-value G (OATP1B1 [4]; Eq. 3 (Ki), ka = 0.1, Fa published value (lopinavir Fa = 1)): 1.87
- Range of the eight R-values A–H (OATP1B1 [4]): 1.19–1.95 and < 2
- Average (mean) R-value (OATP1B1 [4]): 1.49

Molecule: CCOc1cc(CC(=O)N[C@@H](CC(C)C)c2ccccc2N2CCCCC2)ccc1C(=O)O [Repaglinide]
- Classification as OATP1B1 inhibitor (more than 50% inhibition of E17βG uptake) (OATP1B1 [1]): classified as OATP1B1 inhibitors

Molecule: Nc1ncnc2c1ncn2CCOCP(=O)(O)O [Adefovir]
- Classification as OATP1B1 inhibitor (more than 50% inhibition of E17βG uptake) (OATP1B1 [1]): inhibitors
